The values below come from EP1247803A2, “Indolinone compounds suitable for modulation of protein kinases” (Sugen, Inc., priority 1996, dated 1998).

One test addresses T1, FLK-1 receptor (Mus musculus, UniProt P35918).
T1 construct: expressed in transfected cells; host or cells: NIH3T3 C7#3
Kind of test: FLK-1 ELISA (kinase activity of the FLK-1 receptor in FLK-1/NIH3T3 cells, VEGF stimulated). It counts as cell-based. Put shortly:
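FLK-1-expressing NIH3T3 C7#3 cells, starved overnight in 0.1% FBS medium, were treated with compounds at a 1:200 final dilution (0.5% DMSO) for 2 h at 37 °C, with VEGF stimulation. FLK-1 kinase activity was read by ELISA on anti-rabbit IgG plates using affinity-purified anti-FLK-1 antiserum.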
For orientation: ELISA stands for enzyme-linked immunosorbent assay.

The subject of another test is MET. As to the kind of experiment: MET biochemical kinase assay. Set-up: species or system human; concentration or dose not given beside the values. Put shortly:
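MET from cell lysates captured on ELISA plates via rabbit anti-MET cytoplasmic-domain antibody; compounds added and kinase reaction run in ATP and divalent-metal buffer. Receptor phosphotyrosine detected with HRP-conjugated anti-phosphotyrosine antibody and TMB colorimetry.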

T1 sequence (P35918 20-1345): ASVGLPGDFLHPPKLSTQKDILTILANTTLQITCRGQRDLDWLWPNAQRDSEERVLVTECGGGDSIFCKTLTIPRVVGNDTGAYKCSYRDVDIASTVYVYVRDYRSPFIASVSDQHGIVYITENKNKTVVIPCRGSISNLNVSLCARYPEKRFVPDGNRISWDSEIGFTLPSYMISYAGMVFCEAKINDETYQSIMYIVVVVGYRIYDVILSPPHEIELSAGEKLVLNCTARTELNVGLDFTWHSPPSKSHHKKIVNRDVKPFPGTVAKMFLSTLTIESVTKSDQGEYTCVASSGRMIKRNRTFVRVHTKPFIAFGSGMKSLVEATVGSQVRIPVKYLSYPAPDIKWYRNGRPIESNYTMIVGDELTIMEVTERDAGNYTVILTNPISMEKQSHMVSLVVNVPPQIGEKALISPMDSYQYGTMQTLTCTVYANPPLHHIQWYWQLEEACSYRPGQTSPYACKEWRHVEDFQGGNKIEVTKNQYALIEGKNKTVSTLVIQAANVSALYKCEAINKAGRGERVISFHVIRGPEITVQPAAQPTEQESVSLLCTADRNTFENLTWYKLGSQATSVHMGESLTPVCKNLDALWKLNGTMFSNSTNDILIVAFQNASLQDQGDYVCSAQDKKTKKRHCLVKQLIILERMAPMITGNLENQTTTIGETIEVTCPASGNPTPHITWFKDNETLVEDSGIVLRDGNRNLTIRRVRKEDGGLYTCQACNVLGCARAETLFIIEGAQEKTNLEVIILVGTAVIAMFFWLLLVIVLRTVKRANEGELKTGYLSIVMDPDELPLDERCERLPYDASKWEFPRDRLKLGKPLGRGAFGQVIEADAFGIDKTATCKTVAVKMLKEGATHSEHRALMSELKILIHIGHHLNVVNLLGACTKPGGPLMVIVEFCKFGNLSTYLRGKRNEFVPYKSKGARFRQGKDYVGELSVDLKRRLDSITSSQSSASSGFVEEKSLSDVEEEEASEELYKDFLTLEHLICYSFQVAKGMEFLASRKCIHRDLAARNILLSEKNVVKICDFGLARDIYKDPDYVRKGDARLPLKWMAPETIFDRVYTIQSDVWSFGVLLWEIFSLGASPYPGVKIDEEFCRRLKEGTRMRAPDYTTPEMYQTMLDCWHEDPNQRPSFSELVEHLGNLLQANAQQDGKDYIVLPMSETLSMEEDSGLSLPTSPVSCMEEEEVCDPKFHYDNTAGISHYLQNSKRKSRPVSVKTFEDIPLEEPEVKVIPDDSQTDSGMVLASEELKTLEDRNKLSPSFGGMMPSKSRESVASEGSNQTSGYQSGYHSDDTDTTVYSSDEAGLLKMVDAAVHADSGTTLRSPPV

`O=C1Nc2c(Br)cc(Br)cc2C1=Cc1ccccc1O` [10720/A05]: the “Fik Kinase %Inhibition” value on FLK-1 receptor is given as 8.0%. In the test with MET, the “Met Kinase % Inhibition” value came to 43.4%.

Take `O=C1Nc2c(Br)cc(Br)cc2C1=Cc1ccccc1` [10720/A06]: on FLK-1 receptor, the “Fik Kinase %Inhibition” value came out at 5.6%. In addition, the “Met Kinase % Inhibition” value in the test on MET amounted to 63.6%.

As to `CSc1ccc(C=C2C(=O)Nc3c(Br)cc(Br)cc32)s1` [10720/A07], at FLK-1 receptor, the “Fik Kinase %Inhibition” value was 6.6%. Besides, the “Met Kinase % Inhibition” value in the test with MET was determined as 57.2%.

In the case of `Cc1cc(O)cc(O)c1C=C1C(=O)Nc2c(Br)cc(Br)cc21` [10720/A08], the “Fik Kinase %Inhibition” value on FLK-1 receptor is given as -2.2%. For the same compound, the “Met Kinase % Inhibition” value in the test on MET is 77.9%.

In the case of `CCOc1cc(C=C2C(=O)Nc3c(Br)cc(Br)cc32)ccc1O` [10720/A09], the “Fik Kinase %Inhibition” value at FLK-1 receptor came to 8.1%. Moreover, in the test on MET, the “Met Kinase % Inhibition” value is on record as 75.4%.

Take `COc1ccc(O)c(C=C2C(=O)Nc3c(Br)cc(Br)cc32)c1` [10720/A10]: on FLK-1 receptor, the “Fik Kinase %Inhibition” value is reported as -5.2%. Further, the “Met Kinase % Inhibition” value in the test on MET is reported as 68.4%.

`O=C1Nc2c(Br)cc(Br)cc2C1=Cc1ncc[nH]1` [10720/A11]: the “Fik Kinase %Inhibition” value at FLK-1 receptor is reported as -0.6%. In the test with MET, the “Met Kinase % Inhibition” value is 58.7%.

`O=C1Nc2ccc(I)cc2C1=Cc1c(F)cc(F)cc1F` [10720/B02]: on FLK-1 receptor, the “Fik Kinase %Inhibition” value was determined as 6.5%. Further, the “Met Kinase % Inhibition” value in the test on MET came to 38.8%.

`COc1cc(O)ccc1C=C1C(=O)Nc2ccc(I)cc21` [10720/B03]: the “Fik Kinase %Inhibition” value on FLK-1 receptor turned out to be 6.4%. Moreover, the “Met Kinase % Inhibition” value with MET came out at 53.3%.

As for `COc1ccc(C=C2C(=O)Nc3ccc(I)cc32)cc1OC` [10720/B04], the “Fik Kinase %Inhibition” value on FLK-1 receptor is recorded as 9.8%. Also, the “Met Kinase % Inhibition” value with MET stood at 61.8%.

`O=C1Nc2ccc(I)cc2C1=Cc1ccccc1O` [10720/B05]: on FLK-1 receptor, the “Fik Kinase %Inhibition” value is 11.6%. Besides, the “Met Kinase % Inhibition” value with MET turned out to be 51.8%.

In the case of `O=C1Nc2ccc(I)cc2C1=Cc1ccccc1` [10720/B06], the “Fik Kinase %Inhibition” value at FLK-1 receptor was determined as 7.3%. The “Met Kinase % Inhibition” value with MET was 55.1%.

As for `CSc1ccc(C=C2C(=O)Nc3ccc(I)cc32)s1` [10720/B07], the “Fik Kinase %Inhibition” value on FLK-1 receptor is 12.0%. Also, the “Met Kinase % Inhibition” value with MET amounted to 61.5%.

In the case of `Cc1cc(O)cc(O)c1C=C1C(=O)Nc2ccc(I)cc21` [10720/B08], on FLK-1 receptor, the “Fik Kinase %Inhibition” value is 3.6%. The “Met Kinase % Inhibition” value with MET worked out at 27.7%.

`CCOc1cc(C=C2C(=O)Nc3ccc(I)cc32)ccc1O` [10720/B09]: the “Fik Kinase %Inhibition” value at FLK-1 receptor was found to be 10.1%. In the test on MET, the “Met Kinase % Inhibition” value is given as 57.4%.

Regarding `COc1ccc(O)c(C=C2C(=O)Nc3ccc(I)cc32)c1` [10720/B10], the “Fik Kinase %Inhibition” value at FLK-1 receptor is given as -5.5%. In the test on MET, the “Met Kinase % Inhibition” value stood at 45.2%.

Regarding `O=C1Nc2ccc(I)cc2C1=Cc1ncc[nH]1` [10720/B11], at FLK-1 receptor, the “Fik Kinase %Inhibition” value is -20.3%. Moreover, in the test with MET, the “Met Kinase % Inhibition” value came to 42.1%.

Consider `Cc1c(Br)ccc2c1C(=Cc1c(F)cc(F)cc1F)C(=O)N2` [10720/C02], for which the “Fik Kinase %Inhibition” value on FLK-1 receptor was 18.0%. For the same compound, the “Met Kinase % Inhibition” value in the test with MET came to 63.6%.

For the compound `COc1cc(O)ccc1C=C1C(=O)Nc2ccc(Br)c(C)c21` [10720/C03], at FLK-1 receptor, the “Fik Kinase %Inhibition” value is listed as 15.1%. Besides, the “Met Kinase % Inhibition” value in the test with MET is listed as 50.3%.

`COc1ccc(C=C2C(=O)Nc3ccc(Br)c(C)c32)cc1OC` [10720/C04]: on FLK-1 receptor, the “Fik Kinase %Inhibition” value came to 15.3%. In addition, the “Met Kinase % Inhibition” value in the test with MET turned out to be 29.0%.

As to `Cc1c(Br)ccc2c1C(=Cc1ccccc1O)C(=O)N2` [10720/C05], the “Fik Kinase %Inhibition” value on FLK-1 receptor is on record as -36.1%. Besides, the “Met Kinase % Inhibition” value with MET is given as 72.5%.

Regarding `Cc1c(Br)ccc2c1C(=Cc1ccccc1)C(=O)N2` [10720/C06], the “Fik Kinase %Inhibition” value on FLK-1 receptor is 12.2%. Further, in the test with MET, the “Met Kinase % Inhibition” value is on record as 36.7%.

With `CSc1ccc(C=C2C(=O)Nc3ccc(Br)c(C)c32)s1` [10720/C07], the “Fik Kinase %Inhibition” value at FLK-1 receptor came out at 20.7%. In addition, the “Met Kinase % Inhibition” value in the test with MET stood at 26.7%.

As for `Cc1cc(O)cc(O)c1C=C1C(=O)Nc2ccc(Br)c(C)c21` [10720/C08], the “Fik Kinase %Inhibition” value at FLK-1 receptor is on record as 10.9%. The “Met Kinase % Inhibition” value in the test on MET is given as 65.6%.

On to `CCOc1cc(C=C2C(=O)Nc3ccc(Br)c(C)c32)ccc1O` [10720/C09], for which the “Fik Kinase %Inhibition” value on FLK-1 receptor is reported as 12.1%. Further, the “Met Kinase % Inhibition” value in the test on MET stood at 47.5%.

For `COc1ccc(O)c(C=C2C(=O)Nc3ccc(Br)c(C)c32)c1` [10720/C10], on FLK-1 receptor, the “Fik Kinase %Inhibition” value is recorded as -21.1%. In the test with MET, the “Met Kinase % Inhibition” value was determined as 62.6%.

As for `Cc1c(Br)ccc2c1C(=Cc1ncc[nH]1)C(=O)N2` [10720/C11], the “Fik Kinase %Inhibition” value at FLK-1 receptor worked out at 52.5%. The “Met Kinase % Inhibition” value in the test with MET is 30.0%.

As for `CNS(=O)(=O)c1ccc2c(c1)C(=Cc1c(F)cc(F)cc1F)C(=O)N2` [10720/D02], the “Fik Kinase %Inhibition” value on FLK-1 receptor is listed as 12.1%. For the same compound, the “Met Kinase % Inhibition” value in the test with MET amounted to 17.8%.

`CNS(=O)(=O)c1ccc2c(c1)C(=Cc1ccc(O)cc1OC)C(=O)N2` [10720/D03]: the “Fik Kinase %Inhibition” value at FLK-1 receptor amounted to 17.0%. For the same compound, the “Met Kinase % Inhibition” value in the test on MET is recorded as 61.5%.
